For 58 compounds, IC50 results are on record in patent publication US12528816B2, “Substituted imidazo [1,2-b] pyridazines and [1, 2, 4] triazolo [ 4,3-b] pyridazines as camkii inhibitors” (Cardurion Pharmaceuticals, INC., priority 2020, dated 2026).

Bounds are passed on as bounds.

The target of one assay is T1, human CaMKIIδ (Homo sapiens, UniProt Q13557).
T1 construct: Full-length, glutathione-S-transferase(GST)-tagged, human CaMKIIδ was purchased from Carna Biosciences; purchased Carna Biosciences (CaMKIIδ); Wako Pure Chemical Industries (calmodulin) 02-111
Nature of the assay: Evaluation of in vitro CaMKII inhibitory activity (binding assay, TR-FRET).
Conditions: not given
In outline:
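Inhibitors, in eight concentrations of 4-fold dilution, were incubated 1 h at room temperature with a protein–fluorescent probe premix preformed 30 min on ice, containing calmodulin and terbium anti-GST antibody. Displacement read by TR-FRET in duplicate; IC50 by logistic fitting.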
(In general: Time-resolved FRET reads energy transfer from a long-lived donor to a nearby acceptor.)
The compound `C[C@@H](Cn1cncn1)Oc1cc(-c2ccn3ncc(-c4cc(F)ccc4C#N)c3n2)ccn1` [compound 286] returned an IC50 of under 10 nM.

Still in this assay, the particulars now being: in vitro CaMKII inhibitory activity (binding assay), human CaMKIIδ; read-out: Act.
As for `C[C@@H](Cn1cnnn1)Oc1cc(-c2ccc3ncc(-c4ccc(=O)[nH]c4C#N)n3n2)ccc1F` [compound 255], the IC50 is under 10 nM.
For the compound `C[C@@H](Cn1cnnn1)Oc1cc(-c2ccc3ncc(-c4ccc(=O)n(C)c4C#N)n3n2)ccc1F` [compound 256], the IC50 was over 100 nM.
Same read-out and setting: next, `C[C@@H](Cn1cnnn1)Oc1cccc(-c2ccc3ncc(-c4cccnc4C#N)n3n2)c1` [compound 257, 3-[6-(3-{[(2S)-1-(1H-tetrazol-1-yl)propan-2-yl]oxy}phenyl)imidazo[1,2-b]pyridazin-3-yl]pyridine-2-carbonitrile]: under 10 nM; `C[C@@H](Cn1cnnn1)Oc1cc(-c2ccc3ncc(-c4cccc(N=S5(=O)CCCC5)c4C#N)n3n2)ccc1F` [compound 258]: under 10 nM; `C[C@@H](Cn1cnnn1)Oc1cccc(-c2ccc3ncc(-c4ccn(C)c(=O)c4C#N)n3n2)c1` [compound 259, 1-methyl-2-oxo-4-[6-(3-{[(2S)-1-(1H-tetrazol-1-yl)propan-2-yl]oxy}phenyl)imidazo[1,2-b]pyridazin-3-yl]-1,2-dihydropyridine-3-carbonitrile]: under 10 nM.
The same measure, in the same setting: next, `C[C@@H](Cn1cnnn1)Oc1cccc(-c2ccc3ncc(-c4ccnc(Cl)c4C#N)n3n2)c1` [compound 260]: under 10 nM; `CCOc1nccc(-c2cnc3ccc(-c4cccc(O[C@@H](C)Cn5cnnn5)c4)nn23)c1C#N` [compound 261]: under 10 nM.
With `C[C@@H](Cn1cnnn1)Oc1cccc(-c2ccc3ncc(-c4nccnc4C#N)n3n2)c1` [compound 262], the IC50 was under 10 nM.
`C[C@@H](Cn1cnnn1)Oc1cc(-c2ccc3ncc(-c4cc(N=S(C)(C)=O)ccc4C#N)n3n2)ccc1F` [compound 263]: the IC50 is over 100 nM.
On the same count and under the same terms, next, `C[C@@H](Cn1cnnn1)Oc1cc(-c2ccc3ncc(-c4cc(N=S5(=O)CCCC5)ccc4C#N)n3n2)ccc1F` [compound 264]: over 100 nM.
The same measure, in the same setting: next, `C[C@@H](Cn1cnnn1)Oc1cc(-c2ccc3ncc(-c4cn(C)nc4C(F)(F)F)n3n2)ccc1F` [compound 265]: 10 to 100 nM; `Cc1c(-c2cnc3ccc(-c4ccc(F)c(O[C@@H](C)Cn5cnnn5)c4)nn23)c(C(F)(F)F)nn1C` [compound 266]: over 100 nM.
The same measure, in the same setting: next, `COc1nccnc1-c1cnc2ccc(-c3ccc(F)c(O[C@@H](C)Cn4cnnn4)c3)nn12` [compound 268]: 10 to 100 nM; `COc1ncc(F)cc1-c1cnc2ccc(-c3ccc(F)c(O[C@@H](C)Cn4cnnn4)c3)nn12` [compound 270]: under 10 nM; `C[C@@H](Cn1cnnn1)Oc1cccc(-c2ccc3ncc(-c4cc[nH]c(=O)c4C#N)n3n2)c1` [compound 272, 2-oxo-4-[6-(3-{[(2S)-1-(1H-tetrazol-1-yl)propan-2-yl]oxy}phenyl)imidazo[1,2-b]pyridazin-3-yl]-1,2-dihydropyridine-3-carbonitrile]: under 10 nM.
With `C[C@@H](Cn1cnnn1)Oc1cccc(-c2ccc3ncc(-c4ncncc4C#N)n3n2)c1` [compound 273], the IC50 lay in the range of 10 to 100 nM.
On the same count and under the same terms, next, `C[C@@H](Cn1cnnn1)Oc1cccc(-c2ccc3ncc(-c4nccc(C5CC5)c4C#N)n3n2)c1` [compound 274]: under 10 nM; `C[C@@H](Cn1cnnn1)Oc1cccc(-c2ccc3ncc(-c4c[n+]([O-])ccc4C#N)n3n2)c1` [compound 276]: under 10 nM; `Cc1cnc(C#N)c(-c2cnc3ccc(-c4cccc(O[C@@H](C)Cn5cnnn5)c4)nn23)n1` [compound 277]: under 10 nM.
Consider `Cc1ccc(C#N)c(-c2cnc3ccc(-c4cccc(O[C@@H](C)Cn5cnnn5)c4)nn23)n1` [compound 278], for which the IC50 is under 10 nM.
Take `C[C@@H](Cn1cnnn1)Oc1cccc(-c2ccc3ncc(-c4ccncc4C#N)n3n2)c1` [compound 279, 4-[6-(3-{[(2S)-1-(1H-tetrazol-1-yl)propan-2-yl]oxy}phenyl)imidazo[1,2-b]pyridazin-3-yl]pyridine-3-carbonitrile]: the IC50 is under 10 nM.
With `C[C@@H](Cn1cnnn1)Oc1cccc(-c2ccc3ncc(-c4nnccc4C#N)n3n2)c1` [compound 280], the IC50 is under 10 nM.
`COc1cnc(-c2cnc3ccc(-c4cccc(O[C@@H](C)Cn5cnnn5)c4)nn23)c(C#N)c1` [compound 281]: the IC50 was under 10 nM.
Still for that read-out and setting: in the case of `C[C@@H](Cn1cnnn1)Oc1cccc(-c2ccc3ncc(-c4cc[n+]([O-])cc4C#N)n3n2)c1` [compound 282] it was 10 to 100 nM; in that of `C[C@@H](Cn1cnnn1)Oc1cccc(-c2ccc3ncc(-c4cnccn4)n3n2)c1` [compound 283], under 10 nM; in that of `COc1cnc(C#N)c(-c2cnc3ccc(-c4cccc(O[C@@H](C)Cn5cnnn5)c4)nn23)n1` [compound 285], under 10 nM.
Still for that read-out and setting: in the case of `C[C@@H](Cn1cnnn1)Oc1cncc(-c2ccc3ncc(-c4cc(F)ccc4C#N)n3n2)c1` [compound 287, 4-fluoro-2-[6-(5-{[(2S)-1-(1H-tetrazol-1-yl)propan-2-yl]oxy}pyridin-3-yl)imidazo[1,2-b]pyridazin-3-yl]benzonitrile] it was under 10 nM; in that of `C[C@@H](Cn1cnnn1)Oc1cc(-c2ccc3ncc(-c4nccnc4C#N)n3n2)ccc1F` [compound 290], under 10 nM.
In the case of `C[C@@H](Cn1cnnn1)Oc1cc(-c2ccc3ncn(-c4cc(F)ccc4C#N)c3n2)ccc1F` [compound 292], the IC50 was under 10 nM.
Same read-out and setting: in the case of `C[C@@H](Cn1cnnn1)Oc1ccc(F)c(-c2ccc3ncc(-c4ncccc4C#N)n3n2)c1` [compound 293] it was 10 to 100 nM; in that of `C[C@@H](Cn1cnnn1)Oc1cc(-c2ccn3ncc(-c4nccnc4C#N)c3n2)ccc1F` [compound 294], under 10 nM; in that of `C[C@@H](Cn1cnnn1)Oc1cc(-c2ccn3ncc(-c4ncccc4C#N)c3n2)ccc1F` [compound 295], under 10 nM.
Same read-out and setting: in the case of `C[C@@H](Cn1cnnn1)Oc1cc(F)cc(-c2ccc3ncc(-c4ncccc4C#N)n3n2)c1` [compound 296] it was under 10 nM.
Regarding `C[C@@H](Cn1cnnn1)Oc1cc(-c2ccc3ncc(-c4c(C#N)ccc[n+]4[O-])n3n2)ccc1F` [compound 297], the IC50 was in the range of 10 to 100 nM.
In the case of `C[C@@H](Cn1cnnn1)Oc1cc(-c2ccc3ncc(-c4cc(F)ccc4C#N)n3n2)ncn1` [compound 299], the IC50 lay in the range of 10 to 100 nM.
On to `C[C@@H](Cn1cnnn1)Oc1cccc(-c2ccc3ncc(-c4[nH]ccc(=O)c4C#N)n3n2)c1` [compound 301, 4-oxo-2-[6-(3-{[(2S)-1-(1H-tetrazol-1-yl)propan-2-yl]oxy}phenyl)imidazo[1,2-b]pyridazin-3-yl]-1,4-dihydropyridine-3-carbonitrile], for which the IC50 was 10 to 100 nM.
The same measure, in the same setting: in the case of `C[C@@H](Cn1cnnn1)Oc1cccc(-c2ccn3ncc(-c4nccnc4C#N)c3n2)c1` [compound 302] it was under 10 nM.
Regarding `C[C@@H](Cn1cnnn1)Oc1cccc(-c2ccc3ncc(-c4ccccc4C=O)n3n2)c1` [compound 303], the IC50 is under 10 nM.
The same measure, in the same setting: in the case of `C[C@@H](Cn1cnnn1)Oc1cccc(-c2ccn3ncc(-c4ncccc4C#N)c3n2)c1` [compound 304] it was under 10 nM; in that of `C[C@@H](Cn1cnnn1)Oc1cccc(-c2ccc3ncc(-c4ccccc4CN=S(C)(C)=O)n3n2)c1` [compound 306], 10 to 100 nM; in that of `C[C@@H](Cn1cnnn1)Oc1cccc(-c2ccc3ncc(-c4ccccc4CN(C)C)n3n2)c1` [compound 307], 10 to 100 nM.
On the same count and under the same terms, next, `C[C@@H](Cn1cnnn1)Oc1cccc(-c2ccc3ncc(-c4ccccc4CO)n3n2)c1` [compound 308]: under 10 nM; `C[C@@H](Cn1cnnn1)Oc1cccc(-c2ccn3ncc(-c4cnccc4C(N)=O)c3n2)c1` [compound 309]: 10 to 100 nM.
As to `C[C@@H](Cn1cnnn1)Oc1cccc(-c2ccn3ncc(-c4cnccc4C#N)c3n2)c1` [compound 310], the IC50 was under 10 nM.
Take `COc1nc(-c2cnc3ccc(-c4cccc(O[C@@H](C)Cn5cnnn5)c4)nn23)ccc1C#N` [compound 312]: the IC50 is under 10 nM.
Still for that read-out and setting: in the case of `C[C@@H](Cn1cnnn1)Oc1cc(-c2ccc3ncc(-c4cc(F)c[nH]c4=O)n3n2)ccc1F` [compound 314] it was under 10 nM; in that of `COc1ncc(F)cc1-c1cnc2ccc(-c3cccc(O[C@@H](C)Cn4cnnn4)c3)nn12` [compound 315], under 10 nM; in that of `C[C@@H](Cn1cnnn1)Oc1cncc(-c2ccc3ncn(-c4cc(F)ccc4C#N)c3n2)c1` [compound 316], under 10 nM.
On the same count and under the same terms, next, `C[C@@H](Cn1cnnn1)Oc1cc(-c2ccc3ncc(-c4cc(F)cn(C)c4=O)n3n2)ccc1F` [compound 317]: under 10 nM; `C[C@@H](Cn1cnnn1)Oc1cccc(-c2ccc3ncc(-c4cc(=O)[nH]cc4C#N)n3n2)c1` [compound 318]: under 10 nM.
Same read-out and setting: in the case of `C[C@@H](Cn1cnnn1)Oc1cc(-c2ccn3ncc(-c4cc(F)ccc4C#N)c3n2)ccn1` [compound 319] it was under 10 nM; in that of `COc1cccc(-c2cnc3ccc(-c4cccc(O[C@@H](C)Cn5cnnn5)c4)nn23)c1C#N` [compound 322], under 10 nM.
On to `COc1ncc(Cl)cc1-c1cnc2ccc(-c3cccc(O[C@@H](C)Cn4cnnn4)c3)nn12` [compound 323], for which the IC50 is under 10 nM.
Still for that read-out and setting: in the case of `C[C@@H](Cn1cnnn1)Oc1cccc(-c2ccc3ncc(-c4cc(F)c[nH]c4=O)n3n2)c1` [compound 324] it was under 10 nM; in that of `COc1ncc(C)cc1-c1cnc2ccc(-c3cccc(O[C@@H](C)Cn4cnnn4)c3)nn12` [compound 327], under 10 nM.
The same measure, in the same setting: next, `C[C@@H](Cn1cnnn1)Oc1cccc(-c2ccc3ncc(-c4cc(Cl)c[nH]c4=O)n3n2)c1` [compound 328]: under 10 nM; `Cc1c[nH]c(=O)c(-c2cnc3ccc(-c4cccc(O[C@@H](C)Cn5cnnn5)c4)nn23)c1` [compound 329]: under 10 nM.
